Laboratory results published in article PMC8550792, “Evolution of kinase polypharmacology across HSP90 drug discovery” (Cell Chemical Biology, 2021).

How the values were obtained:
Assay in all cases: biochemical
Assay type in all cases: biochemical
382 unique human kinases [1] = target: T1, 382 unique human kinases (Homo sapiens, UniProt Q02763, R849W); conditions: kinase TIE2 (R849W), compound 10 uM; for remaining activity at 10 µM: read-out: % Enzyme Activity (relative to DMSO controls)
T1 construct: purchased Reaction Biology (HotSpot contract assay)
T1 sequence (Q02763 23-1124 R849W): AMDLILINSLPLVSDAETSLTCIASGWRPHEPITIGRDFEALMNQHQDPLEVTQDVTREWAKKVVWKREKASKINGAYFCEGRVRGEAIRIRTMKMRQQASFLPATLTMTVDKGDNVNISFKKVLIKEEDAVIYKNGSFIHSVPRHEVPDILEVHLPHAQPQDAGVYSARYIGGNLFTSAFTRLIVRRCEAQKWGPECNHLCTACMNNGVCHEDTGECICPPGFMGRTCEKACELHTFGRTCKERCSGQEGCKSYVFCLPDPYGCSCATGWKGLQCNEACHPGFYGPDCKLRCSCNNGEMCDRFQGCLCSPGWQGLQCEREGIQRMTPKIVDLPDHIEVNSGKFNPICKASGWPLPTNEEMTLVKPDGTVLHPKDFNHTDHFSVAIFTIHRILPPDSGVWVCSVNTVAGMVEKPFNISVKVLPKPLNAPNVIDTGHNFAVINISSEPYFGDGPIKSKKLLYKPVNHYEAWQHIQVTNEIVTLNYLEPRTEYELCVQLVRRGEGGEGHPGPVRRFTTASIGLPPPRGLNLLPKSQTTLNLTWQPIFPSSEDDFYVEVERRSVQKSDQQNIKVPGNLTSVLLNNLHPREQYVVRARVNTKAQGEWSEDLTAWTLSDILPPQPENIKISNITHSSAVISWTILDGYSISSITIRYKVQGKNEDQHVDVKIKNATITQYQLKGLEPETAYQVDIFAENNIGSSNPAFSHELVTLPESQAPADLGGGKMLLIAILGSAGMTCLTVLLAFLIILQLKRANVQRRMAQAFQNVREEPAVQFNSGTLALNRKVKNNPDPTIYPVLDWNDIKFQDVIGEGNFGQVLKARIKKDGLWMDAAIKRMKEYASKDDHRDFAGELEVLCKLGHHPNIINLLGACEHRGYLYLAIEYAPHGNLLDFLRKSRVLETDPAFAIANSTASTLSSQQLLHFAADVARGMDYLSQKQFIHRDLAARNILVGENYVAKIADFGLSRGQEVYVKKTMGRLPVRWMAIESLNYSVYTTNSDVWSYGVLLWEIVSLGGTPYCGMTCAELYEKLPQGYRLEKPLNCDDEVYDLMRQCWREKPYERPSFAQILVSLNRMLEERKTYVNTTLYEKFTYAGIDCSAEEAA

382 unique human kinases [2] = target: T2, 382 unique human kinases (Homo sapiens, UniProt Q9Y2K2); conditions: SIK3, 10 uM; for remaining activity at 10 µM: read-out: % Enzyme Activity (relative to DMSO controls)
T2 construct: purchased Reaction Biology (HotSpot contract assay)

382 unique human kinases [3] = target: T3, 382 unique human kinases (Homo sapiens, UniProt Q86Z02); conditions: HIPK1, compound at 10 uM, duplicate values; for remaining activity at 10 µM: read-out: % Enzyme Activity (relative to DMSO controls)
T3 construct: purchased Reaction Biology (HotSpot contract assay)
T3 sequence (Q86Z02 whole entry): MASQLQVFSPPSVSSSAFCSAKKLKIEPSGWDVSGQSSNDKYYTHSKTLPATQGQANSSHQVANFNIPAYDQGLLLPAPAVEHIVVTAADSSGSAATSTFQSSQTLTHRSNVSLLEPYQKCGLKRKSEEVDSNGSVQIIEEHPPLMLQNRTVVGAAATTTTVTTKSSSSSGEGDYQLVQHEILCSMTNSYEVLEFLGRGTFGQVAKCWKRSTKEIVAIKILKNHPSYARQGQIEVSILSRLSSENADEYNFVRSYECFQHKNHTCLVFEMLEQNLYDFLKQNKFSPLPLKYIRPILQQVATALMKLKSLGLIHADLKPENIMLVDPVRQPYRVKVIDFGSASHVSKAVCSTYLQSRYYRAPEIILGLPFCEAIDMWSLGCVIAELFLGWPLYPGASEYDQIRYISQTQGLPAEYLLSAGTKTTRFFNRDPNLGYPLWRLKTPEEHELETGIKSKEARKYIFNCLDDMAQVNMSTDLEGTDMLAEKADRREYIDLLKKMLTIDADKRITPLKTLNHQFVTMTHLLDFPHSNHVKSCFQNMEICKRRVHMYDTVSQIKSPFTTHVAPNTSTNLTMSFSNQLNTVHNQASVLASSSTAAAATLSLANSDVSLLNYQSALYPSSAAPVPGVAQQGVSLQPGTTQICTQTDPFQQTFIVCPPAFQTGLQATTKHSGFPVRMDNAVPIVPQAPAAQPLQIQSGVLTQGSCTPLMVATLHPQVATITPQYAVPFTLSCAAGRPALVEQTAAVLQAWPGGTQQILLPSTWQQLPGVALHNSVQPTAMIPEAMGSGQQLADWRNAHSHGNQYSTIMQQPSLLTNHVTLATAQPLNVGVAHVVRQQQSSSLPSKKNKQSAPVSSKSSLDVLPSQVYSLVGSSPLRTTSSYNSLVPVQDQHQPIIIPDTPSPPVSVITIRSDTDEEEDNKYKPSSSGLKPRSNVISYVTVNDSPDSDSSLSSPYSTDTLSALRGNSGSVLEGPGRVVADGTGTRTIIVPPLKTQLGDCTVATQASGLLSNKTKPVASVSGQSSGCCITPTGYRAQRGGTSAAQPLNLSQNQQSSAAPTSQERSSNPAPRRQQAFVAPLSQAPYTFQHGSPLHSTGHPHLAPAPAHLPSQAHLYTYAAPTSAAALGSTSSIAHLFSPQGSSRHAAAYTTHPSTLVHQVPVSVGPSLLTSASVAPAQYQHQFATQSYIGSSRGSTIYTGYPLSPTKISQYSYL

382 unique human kinases [4] = target: T4, 382 unique human kinases (Homo sapiens, UniProt O43781); conditions: DYRK3, 10 uM; for remaining activity at 10 µM: read-out: % Enzyme Activity (relative to DMSO controls)
T4 construct: purchased Reaction Biology (HotSpot contract assay)
T4 sequence (O43781 1-588): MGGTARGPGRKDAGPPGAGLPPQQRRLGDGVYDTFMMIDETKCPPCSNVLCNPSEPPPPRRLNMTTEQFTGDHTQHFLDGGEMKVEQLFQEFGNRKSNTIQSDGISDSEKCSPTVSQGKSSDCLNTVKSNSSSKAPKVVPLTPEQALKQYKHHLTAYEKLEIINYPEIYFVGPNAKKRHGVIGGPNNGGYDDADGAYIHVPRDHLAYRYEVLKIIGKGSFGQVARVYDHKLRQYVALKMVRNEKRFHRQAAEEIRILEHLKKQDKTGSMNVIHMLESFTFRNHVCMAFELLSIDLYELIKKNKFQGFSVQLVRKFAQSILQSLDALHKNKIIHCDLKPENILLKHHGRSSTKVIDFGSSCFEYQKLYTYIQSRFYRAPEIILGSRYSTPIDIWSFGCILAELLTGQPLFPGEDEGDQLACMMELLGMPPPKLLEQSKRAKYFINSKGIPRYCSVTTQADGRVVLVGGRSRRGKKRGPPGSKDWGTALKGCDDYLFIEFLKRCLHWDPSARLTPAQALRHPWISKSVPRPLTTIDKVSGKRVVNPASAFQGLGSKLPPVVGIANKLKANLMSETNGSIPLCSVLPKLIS

382 unique human kinases [5] = target: T5, 382 unique human kinases (Homo sapiens, UniProt Q16539, T106M); conditions: P38a (T106M), 10 uM; for remaining activity at 10 µM: read-out: % Enzyme Activity (relative to DMSO controls)
T5 construct: purchased Reaction Biology (HotSpot contract assay)

382 unique human kinases [6] = target: T6, 382 unique human kinases (Homo sapiens, UniProt Q9HCP0); conditions: CK1g1, 10 uM; for remaining activity at 10 µM: read-out: % Enzyme Activity (relative to DMSO controls)
T6 construct: purchased Reaction Biology (HotSpot contract assay)
T6 sequence (Q9HCP0 whole entry): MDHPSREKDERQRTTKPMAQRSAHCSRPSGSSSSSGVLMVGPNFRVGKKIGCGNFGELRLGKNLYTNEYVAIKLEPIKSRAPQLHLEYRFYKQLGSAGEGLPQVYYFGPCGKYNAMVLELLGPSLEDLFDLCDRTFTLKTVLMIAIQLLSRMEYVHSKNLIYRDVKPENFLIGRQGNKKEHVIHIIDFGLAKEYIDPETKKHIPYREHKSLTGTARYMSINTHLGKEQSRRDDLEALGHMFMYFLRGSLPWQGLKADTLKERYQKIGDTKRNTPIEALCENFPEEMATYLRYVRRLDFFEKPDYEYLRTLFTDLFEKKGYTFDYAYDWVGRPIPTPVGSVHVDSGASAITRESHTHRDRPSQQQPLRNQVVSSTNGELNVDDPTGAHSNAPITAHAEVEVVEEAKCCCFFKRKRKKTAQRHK

382 unique human kinases [7] = target: T7, 382 unique human kinases (Homo sapiens, UniProt P42684); conditions: ABL2/ARG, [ATP] 30 µM
T7 construct: purchased Reaction Biology (HotSpot contract assay)

382 unique human kinases [8] = target: T8, 382 unique human kinases (Homo sapiens, UniProt P08581, P991S); conditions: c-MET (P991S), 10 uM; for remaining activity at 10 µM: read-out: % Enzyme Activity (relative to DMSO controls)
T8 construct: purchased Reaction Biology (HotSpot contract assay)

382 unique human kinases [9] = target: T9, 382 unique human kinases (Homo sapiens, UniProt P10721, D816Y); conditions: c-Kit (D816Y), [ATP] 10 µM, compound 10 uM; for remaining activity at 10 µM: read-out: % Enzyme Activity (relative to DMSO controls)
T9 construct: purchased Reaction Biology (HotSpot contract assay)

382 unique human kinases [10] = target: T10, 382 unique human kinases (Homo sapiens, UniProt Q05655); conditions: PKCd, 10 uM; for remaining activity at 10 µM: read-out: % Enzyme Activity (relative to DMSO controls)
T10 construct: purchased Reaction Biology (HotSpot contract assay)
T10 sequence (Q05655 whole entry): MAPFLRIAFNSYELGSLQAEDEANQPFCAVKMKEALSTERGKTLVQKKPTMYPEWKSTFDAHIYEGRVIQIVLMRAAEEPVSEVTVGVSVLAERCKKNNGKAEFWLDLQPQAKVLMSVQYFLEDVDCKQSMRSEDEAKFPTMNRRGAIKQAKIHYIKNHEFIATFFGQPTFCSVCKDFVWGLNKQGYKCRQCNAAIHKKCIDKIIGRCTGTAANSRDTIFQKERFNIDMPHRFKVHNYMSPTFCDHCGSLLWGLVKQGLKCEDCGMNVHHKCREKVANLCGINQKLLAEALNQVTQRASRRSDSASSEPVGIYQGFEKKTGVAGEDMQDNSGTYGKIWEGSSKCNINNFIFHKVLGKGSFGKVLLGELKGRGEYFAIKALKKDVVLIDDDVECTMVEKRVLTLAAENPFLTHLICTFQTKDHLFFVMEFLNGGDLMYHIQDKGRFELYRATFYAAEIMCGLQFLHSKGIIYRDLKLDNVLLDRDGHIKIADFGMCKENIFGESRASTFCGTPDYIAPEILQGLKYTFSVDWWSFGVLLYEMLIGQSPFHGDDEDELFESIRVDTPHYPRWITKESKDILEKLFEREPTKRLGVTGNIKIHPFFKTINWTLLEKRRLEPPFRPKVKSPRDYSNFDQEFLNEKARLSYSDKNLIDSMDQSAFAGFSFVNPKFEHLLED

382 unique human kinases [11] = target: T11, 382 unique human kinases (Homo sapiens, UniProt Q14680); conditions: MELK, [ATP] 50 µM, compound 10 uM; for remaining activity at 10 µM: read-out: % Enzyme Activity (relative to DMSO controls)
T11 construct: purchased Reaction Biology (HotSpot contract assay)

382 unique human kinases [12] = target: T12, 382 unique human kinases (Homo sapiens, UniProt Q9UEE5); conditions: DRAK1/STK17A, 10 uM; for remaining activity at 10 µM: read-out: % Enzyme Activity (relative to DMSO controls)
T12 construct: purchased Reaction Biology (HotSpot contract assay)
T12 sequence (Q9UEE5 1-414): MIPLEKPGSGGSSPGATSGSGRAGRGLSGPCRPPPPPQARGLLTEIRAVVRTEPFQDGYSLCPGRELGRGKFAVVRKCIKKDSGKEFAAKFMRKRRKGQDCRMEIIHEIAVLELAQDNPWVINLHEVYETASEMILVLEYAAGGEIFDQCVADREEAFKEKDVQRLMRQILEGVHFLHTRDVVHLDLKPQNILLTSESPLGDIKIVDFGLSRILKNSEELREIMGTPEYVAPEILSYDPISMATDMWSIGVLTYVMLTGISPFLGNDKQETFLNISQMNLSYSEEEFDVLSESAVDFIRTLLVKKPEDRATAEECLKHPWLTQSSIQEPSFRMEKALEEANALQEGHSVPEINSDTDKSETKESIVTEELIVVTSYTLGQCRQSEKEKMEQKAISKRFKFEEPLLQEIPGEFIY

382 unique human kinases [13] = target: T13, 382 unique human kinases (Homo sapiens, UniProt Q5S007, I2020T); conditions: LRRK2 (I2020T), [ATP] 10 µM, compound 10 uM; for remaining activity at 10 µM: read-out: % Enzyme Activity (relative to DMSO controls)
T13 construct: purchased Reaction Biology (HotSpot contract assay)

382 unique human kinases [14] = target: T14, 382 unique human kinases (Homo sapiens, UniProt Q13464); conditions: ROCK1, 10 uM; for remaining activity at 10 µM: read-out: % Enzyme Activity (relative to DMSO controls)
T14 construct: purchased Reaction Biology (HotSpot contract assay)
T14 sequence (Q13464 whole entry): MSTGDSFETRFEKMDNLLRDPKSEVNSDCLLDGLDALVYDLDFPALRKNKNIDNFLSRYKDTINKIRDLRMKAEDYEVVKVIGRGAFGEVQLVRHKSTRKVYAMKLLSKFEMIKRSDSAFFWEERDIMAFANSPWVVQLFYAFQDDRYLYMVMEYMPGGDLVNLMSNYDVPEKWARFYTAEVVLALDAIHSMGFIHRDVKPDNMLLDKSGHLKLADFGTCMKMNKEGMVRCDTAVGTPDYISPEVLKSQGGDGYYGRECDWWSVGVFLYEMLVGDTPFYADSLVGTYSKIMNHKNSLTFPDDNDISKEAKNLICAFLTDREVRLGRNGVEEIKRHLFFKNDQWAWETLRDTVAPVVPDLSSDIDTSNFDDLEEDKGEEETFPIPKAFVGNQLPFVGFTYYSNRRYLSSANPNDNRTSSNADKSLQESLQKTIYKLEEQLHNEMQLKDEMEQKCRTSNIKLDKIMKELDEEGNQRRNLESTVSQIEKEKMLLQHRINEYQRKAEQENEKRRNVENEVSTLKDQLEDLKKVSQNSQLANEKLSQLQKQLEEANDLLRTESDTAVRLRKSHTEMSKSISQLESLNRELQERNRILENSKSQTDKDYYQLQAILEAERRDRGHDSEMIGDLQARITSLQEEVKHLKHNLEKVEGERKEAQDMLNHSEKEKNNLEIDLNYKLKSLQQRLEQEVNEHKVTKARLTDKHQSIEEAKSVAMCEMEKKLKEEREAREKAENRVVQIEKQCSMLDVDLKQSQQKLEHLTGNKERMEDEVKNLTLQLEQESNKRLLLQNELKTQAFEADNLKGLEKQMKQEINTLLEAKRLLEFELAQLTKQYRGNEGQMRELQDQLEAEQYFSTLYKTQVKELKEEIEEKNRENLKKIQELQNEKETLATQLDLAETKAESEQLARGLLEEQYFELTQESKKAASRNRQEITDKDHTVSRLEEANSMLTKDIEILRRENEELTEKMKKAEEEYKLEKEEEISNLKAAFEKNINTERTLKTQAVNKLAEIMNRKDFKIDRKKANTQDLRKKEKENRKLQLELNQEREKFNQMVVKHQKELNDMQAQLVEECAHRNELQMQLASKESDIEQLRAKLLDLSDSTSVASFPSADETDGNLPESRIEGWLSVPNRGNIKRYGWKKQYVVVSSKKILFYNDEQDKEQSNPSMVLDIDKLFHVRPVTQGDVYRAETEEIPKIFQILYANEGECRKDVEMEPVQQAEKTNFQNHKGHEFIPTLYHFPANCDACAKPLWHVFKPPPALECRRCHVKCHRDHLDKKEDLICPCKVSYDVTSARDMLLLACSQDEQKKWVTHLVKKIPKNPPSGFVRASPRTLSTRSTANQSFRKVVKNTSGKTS

382 unique human kinases [15] = target: T15, 382 unique human kinases (Homo sapiens, UniProt P08581, Y1230A); conditions: c-MET (Y1230A), 10 uM; for remaining activity at 10 µM: read-out: % Enzyme Activity (relative to DMSO controls)
T15 construct: purchased Reaction Biology (HotSpot contract assay)

[16] = compound 10 uM, read-out: % Enzyme Activity (relative to DMSO controls)

For CC(C)c1cc(-c2n[nH]c(=O)n2-c2ccc3c(ccn3C)c2)c(O)cc1O [Ganetespib (STA9090)], the remaining activity at 10 µM (382 unique human kinases [1]) was 83.1%, the remaining activity at 10 µM (382 unique human kinases [2]) was 78.3% and the remaining activity at 10 µM (382 unique human kinases [3]) was 133%. The remaining activity at 10 µM (382 unique human kinases [4]) was 67.1%.

For CC(C)c1cc(-c2n[nH]c(=O)n2-c2ccc3c(ccn3C)c2)c(O)cc1O [Ganetespib], the remaining activity at 10 µM (382 unique human kinases [5]) was 95.8%, the remaining activity at 10 µM (382 unique human kinases [6]) was 95.4% and the remaining activity at 1 µM (382 unique human kinases [7]; compound 1 uM, read-out: % Enzyme Activity (relative to DMSO controls)) was 12.9%. It also gave a remaining activity at 10 µM (382 unique human kinases [7]; [16]) of 1.12%, a remaining activity at 10 µM (382 unique human kinases [8]) of 109% and a remaining activity at 10 µM (382 unique human kinases [9]) of 32.1%. For the same compound, the remaining activity at 10 µM (382 unique human kinases [10]) was 92%, the remaining activity at 10 µM (382 unique human kinases [11]) was 44.5% and the remaining activity at 10 µM (382 unique human kinases [12]) was 106%. For the same compound, the remaining activity at 10 µM (382 unique human kinases [13]) was 39%, the remaining activity at 10 µM (382 unique human kinases [14]) was 91.4% and the remaining activity at 10 µM (382 unique human kinases [15]) was 117%.

In the case of CCNC(=O)c1noc(-c2cc(C(C)C)c(O)cc2O)c1-c1ccc(CN2CCOCC2)cc1 [Luminespib (AUY-922)], the “% Enzyme Activity (relative to DMSO controls)” value (382 unique human kinases [1]) was 89.68%, the remaining activity at 10 µM (382 unique human kinases [1]) was 90.9% and the “% Enzyme Activity (relative to DMSO controls)” value (382 unique human kinases [2]) was 99.21%. The remaining activity at 10 µM (382 unique human kinases [2]) was 99.6%, the “% Enzyme Activity (relative to DMSO controls)” value (382 unique human kinases [3]) was 102.12% and the remaining activity at 10 µM (382 unique human kinases [3]) was 104%. The “% Enzyme Activity (relative to DMSO controls)” value (382 unique human kinases [4]) was 94.13% and the remaining activity at 10 µM (382 unique human kinases [4]) was 94.8%.

In the case of CCNC(=O)c1noc(-c2cc(C(C)C)c(O)cc2O)c1-c1ccc(CN2CCOCC2)cc1 [Luminespib], the “% Enzyme Activity (relative to DMSO controls)” value (382 unique human kinases [5]) was 98.91%, the remaining activity at 10 µM (382 unique human kinases [5]) was 99.8% and the “% Enzyme Activity (relative to DMSO controls)” value (382 unique human kinases [6]) was 93.44%. The remaining activity at 10 µM (382 unique human kinases [6]) was 97.5%, the “% Enzyme Activity (relative to DMSO controls)” value (382 unique human kinases [7]; compound 10 uM) was 7.82% and the remaining activity at 10 µM (382 unique human kinases [7]; [16]) was 8.16%. For the same compound, the “% Enzyme Activity (relative to DMSO controls)” value (382 unique human kinases [8]) was 98.52%, the remaining activity at 10 µM (382 unique human kinases [8]) was 100% and the “% Enzyme Activity (relative to DMSO controls)” value (382 unique human kinases [9]) was 53.55%. The remaining activity at 10 µM (382 unique human kinases [9]) was 57.9%, the “% Enzyme Activity (relative to DMSO controls)” value (382 unique human kinases [10]) was 95.84% and the remaining activity at 10 µM (382 unique human kinases [10]) was 96.4%. For the same compound, the “% Enzyme Activity (relative to DMSO controls)” value (382 unique human kinases [11]) was 56.86%, the remaining activity at 10 µM (382 unique human kinases [11]) was 56.9% and the “% Enzyme Activity (relative to DMSO controls)” value (382 unique human kinases [12]) was 99.90%. The remaining activity at 10 µM (382 unique human kinases [12]) was 99.9%, the “% Enzyme Activity (relative to DMSO controls)” value (382 unique human kinases [13]) was 86.48% and the remaining activity at 10 µM (382 unique human kinases [13]) was 86.5%. For the same compound, the “% Enzyme Activity (relative to DMSO controls)” value (382 unique human kinases [14]) was 95.76%, the remaining activity at 10 µM (382 unique human kinases [14]) was 96.4% and the “% Enzyme Activity (relative to DMSO controls)” value (382 unique human kinases [15]) was 98.90%. The remaining activity at 10 µM (382 unique human kinases [15]) was 101%.
